Results reported in the supplement of paper PMC10307832.

Compound: C[C@@H](C(=O)N[C@@H](C1CCCCC1)C(=O)N2CCC[C@H]2C(=O)N[C@@H]3[C@@H](CC4=CC=CC=C34)OCC#CC#CCO[C@@H]5CC6=CC=CC=C6[C@@H]5NC(=O)[C@@H]7CCCN7C(=O)[C@H](C8CCCCC8)NC(=O)[C@H](C)NC)NC [AZD5582] + COc1cccc2cc(-c3nc([C@H]4CC[C@H](C(=O)O)CC4)n4ncnc(N)c34)[nH]c12 [OSI-027] (partner 0.5 µM)
Assay: relative viability (nuclei count vs DMSO), 5 days (fraction); higher = more cells survive
Settings: first compound 0.05 µM
Procedure, shortened: (§1)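 A single step with final 0.05% Triton X-100, 1% formaldehyde and 1 ug/ml Hoechst fixed the cells and stained nuclei 5 days after treatment. Lung cancer cell lines in 1536-well plates had been treated by pin tool the day after seeding with one drug alone or a fixed anchor-drug dose plus five library-drug doses (not always all listed) in √10 steps, and nuclei were counted on 4× images. Relative viability is the ratio of nuclei in treated wells to nuclei in vehicle wells, taken as the median of duplicate plates.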

Cell Line | relative viability
NCI-H520 | 0.269
NCI-H522 | 0.595
NCI-H647 | 0.75
NCI-H650 | 0.32
NCI-H661 | 0.676
NCI-H727 | 0.529
NCI-H838 | 0.449
NCI-H1355 | 0.322
NCI-H1395 | 0.767
NCI-H1437 | 0.94
NCI-H1650 | 0.564
NCI-H1651 | 0.983
NCI-H1666 | 0.874
NCI-H1734 | 0.594
NCI-H1755 | 0.659
NCI-H1792 | 1.06
NCI-H1793 | 0.185
NCI-H1915 | 0.627
NCI-H1944 | 0.446

Compound: C[C@@H](C(=O)N[C@@H](C1CCCCC1)C(=O)N2CCC[C@H]2C(=O)N[C@@H]3[C@@H](CC4=CC=CC=C34)OCC#CC#CCO[C@@H]5CC6=CC=CC=C6[C@@H]5NC(=O)[C@@H]7CCCN7C(=O)[C@H](C8CCCCC8)NC(=O)[C@H](C)NC)NC [AZD5582] + CC(=O)c1c(C)c2cnc(Nc3ccc(N4CCNCC4)cn3)nc2n(C2CCCC2)c1=O [Palbociclib] (partner 0.5 µM)
Assay: as above
Settings: first compound 0.001581 µM
Procedure, shortened: as §1

Cell Line | relative viability
HCC-44 | 0.906
HCC-78 | 0.435
HCC-366 | 0.347
HCC-827 | 0.481
HOP-62 | 0.297
LC-2-ad | 0.465
LCLC-97TM1 | 0.172
LCLC-103H | 0.47
LK-2 | 0.553
LOU-NH91 | 0.529
LU99A | 0.455
LXF-289 | 0.575
NCI-H23 | 0.393
NCI-H322M | 0.526
NCI-H358 | 0.124
NCI-H441 | 0.232
NCI-H460 | 0.102
NCI-H520 | 0.193

Cell Line | relative viability
NCI-H522 | 0.963
NCI-H647 | 0.26
NCI-H650 | 0.328
NCI-H661 | 0.403
NCI-H727 | 0.612
NCI-H838 | 0.214
NCI-H1355 | 0.378
NCI-H1395 | 0.578
NCI-H1437 | 0.266
NCI-H1650 | 0.37
NCI-H1651 | 0.489
NCI-H1666 | 0.678
NCI-H1734 | 0.295
NCI-H1755 | 0.449
NCI-H1792 | 0.629
NCI-H1793 | 0.311
NCI-H1915 | 0.521
NCI-H1944 | 0.274

Same assay, conditions: first compound 0.005 µM

Cell Line | relative viability
HCC-44 | 0.931
HCC-78 | 0.474
HCC-366 | 0.319
HCC-827 | 0.47
HOP-62 | 0.46
LC-2-ad | 0.535
LCLC-97TM1 | 0.282
LCLC-103H | 0.469
LK-2 | 0.738
LOU-NH91 | 0.54
LU99A | 0.465
LXF-289 | 0.585
NCI-H23 | 0.374
NCI-H322M | 0.521
NCI-H358 | 0.156
NCI-H441 | 0.224
NCI-H460 | 0.189
NCI-H520 | 0.256

Cell Line | relative viability
NCI-H522 | 1.02
NCI-H647 | 0.39
NCI-H650 | 0.287
NCI-H661 | 0.44
NCI-H727 | 0.647
NCI-H838 | 0.257
NCI-H1355 | 0.415
NCI-H1395 | 0.688
NCI-H1437 | 0.307
NCI-H1650 | 0.43
NCI-H1651 | 0.52
NCI-H1666 | 0.579
NCI-H1734 | 0.356
NCI-H1755 | 0.484
NCI-H1792 | 0.715
NCI-H1793 | 0.355
NCI-H1915 | 0.536
NCI-H1944 | 0.319

Same assay, conditions: first compound 0.01581 µM

Cell Line | relative viability
HCC-44 | 1.02
HCC-78 | 0.474
HCC-366 | 0.322
HCC-827 | 0.492
HOP-62 | 0.453
LC-2-ad | 0.46
LCLC-97TM1 | 0.24
LCLC-103H | 0.432
LOU-NH91 | 0.487
LU99A | 0.412
LXF-289 | 0.577
NCI-H23 | 0.419
NCI-H322M | 0.456
NCI-H358 | 0.14
NCI-H441 | 0.206
NCI-H460 | 0.211
NCI-H520 | 0.238

Cell Line | relative viability
NCI-H522 | 1.11
NCI-H647 | 0.394
NCI-H650 | 0.255
NCI-H661 | 0.464
NCI-H727 | 0.635
NCI-H838 | 0.191
NCI-H1355 | 0.386
NCI-H1437 | 0.278
NCI-H1650 | 0.334
NCI-H1651 | 0.492
NCI-H1666 | 0.575
NCI-H1734 | 0.366
NCI-H1755 | 0.453
NCI-H1792 | 0.624
NCI-H1793 | 0.297
NCI-H1915 | 0.502
NCI-H1944 | 0.309

Same assay, conditions: first compound 0.05 µM

Cell Line | relative viability
HCC-44 | 0.928
HCC-78 | 0.432
HCC-366 | 0.43
HCC-827 | 0.529
HOP-62 | 0.379
LC-2-ad | 0.543
LCLC-97TM1 | 0.165
LCLC-103H | 0.377
LK-2 | 0.75
LOU-NH91 | 0.532
LU99A | 0.534
LXF-289 | 0.598
NCI-H23 | 0.305
NCI-H322M | 0.605
NCI-H358 | 0.136
NCI-H441 | 0.187
NCI-H460 | 0.148
NCI-H520 | 0.223

Cell Line | relative viability
NCI-H522 | 0.912
NCI-H647 | 0.387
NCI-H650 | 0.245
NCI-H661 | 0.429
NCI-H727 | 0.614
NCI-H838 | 0.213
NCI-H1355 | 0.357
NCI-H1395 | 0.76
NCI-H1437 | 0.31
NCI-H1650 | 0.328
NCI-H1651 | 0.608
NCI-H1666 | 0.661
NCI-H1734 | 0.333
NCI-H1755 | 0.526
NCI-H1792 | 0.776
NCI-H1793 | 0.397
NCI-H1915 | 0.544
NCI-H1944 | 0.43

Compound: C[C@@H](C(=O)N[C@@H](C1CCCCC1)C(=O)N2CCC[C@H]2C(=O)N[C@@H]3[C@@H](CC4=CC=CC=C34)OCC#CC#CCO[C@@H]5CC6=CC=CC=C6[C@@H]5NC(=O)[C@@H]7CCCN7C(=O)[C@H](C8CCCCC8)NC(=O)[C@H](C)NC)NC [AZD5582] + N=C(N)NC(=N)NCCc1ccccc1 [Phenformin] (partner 250 µM)
Assay: as above
Settings: first compound 0.001581 µM
Procedure, shortened: as §1

Cell Line | relative viability
HCC-44 | 0.169
HCC-78 | 0.606
HCC-366 | 0.575
HCC-827 | 0.391
HOP-62 | 0.515
LC-2-ad | 0.607
LCLC-97TM1 | 0.402
LCLC-103H | 0.328
LK-2 | 0.433
LOU-NH91 | 0.716
LU99A | 0.785
LXF-289 | 0.484
NCI-H23 | 0.66
NCI-H322M | 0.776
NCI-H358 | 0.366
NCI-H441 | 0.621
NCI-H460 | 0.485
NCI-H520 | 0.451

Cell Line | relative viability
NCI-H522 | 0.635
NCI-H647 | 0.47
NCI-H650 | 0.417
NCI-H661 | 0.268
NCI-H727 | 0.518
NCI-H838 | 0.551
NCI-H1355 | 0.416
NCI-H1395 | 0.5
NCI-H1437 | 0.251
NCI-H1650 | 0.461
NCI-H1651 | 0.353
NCI-H1666 | 0.532
NCI-H1734 | 0.418
NCI-H1755 | 0.578
NCI-H1793 | 0.295
NCI-H1915 | 0.358
NCI-H1944 | 0.176

Same assay, conditions: first compound 0.005 µM

Cell Line | relative viability
HCC-44 | 0.149
HCC-78 | 0.664
HCC-366 | 0.564
HCC-827 | 0.383
HOP-62 | 0.676
LC-2-ad | 0.64
LCLC-97TM1 | 0.467
LCLC-103H | 0.316
LK-2 | 0.588
LOU-NH91 | 0.698
LU99A | 0.927
LXF-289 | 0.488
NCI-H23 | 0.611
NCI-H322M | 0.996
NCI-H358 | 0.374
NCI-H441 | 0.799
NCI-H460 | 0.524
NCI-H520 | 0.539

Cell Line | relative viability
NCI-H522 | 0.643
NCI-H647 | 0.504
NCI-H650 | 0.401
NCI-H661 | 0.271
NCI-H727 | 1.28
NCI-H838 | 0.703
NCI-H1355 | 0.426
NCI-H1395 | 0.476
NCI-H1437 | 0.279
NCI-H1650 | 0.492
NCI-H1651 | 0.339
NCI-H1666 | 0.544
NCI-H1734 | 0.516
NCI-H1755 | 0.666
NCI-H1792 | 0.323
NCI-H1793 | 0.404
NCI-H1915 | 0.361
NCI-H1944 | 0.227

Same assay, conditions: first compound 0.01581 µM

Cell Line | relative viability
HCC-44 | 0.105
HCC-78 | 0.389
HCC-827 | 0.368
HOP-62 | 0.666
LC-2-ad | 0.338
LCLC-97TM1 | 0.2
LCLC-103H | 0.272
LK-2 | 0.393
LOU-NH91 | 0.592
LU99A | 0.819
LXF-289 | 0.409
NCI-H23 | 0.518
NCI-H358 | 0.399
NCI-H460 | 0.487
NCI-H520 | 0.528
NCI-H522 | 0.649
NCI-H647 | 0.456
NCI-H650 | 0.342
NCI-H661 | 0.269
NCI-H727 | 0.632
NCI-H1355 | 0.381
NCI-H1395 | 0.412
NCI-H1437 | 0.254
NCI-H1650 | 0.342
NCI-H1666 | 0.557
NCI-H1734 | 0.37
NCI-H1755 | 0.502
NCI-H1793 | 0.306
NCI-H1915 | 0.342
NCI-H1944 | 0.193

Same assay, conditions: first compound 0.05 µM

Cell Line | relative viability
HCC-44 | 0.145
HCC-78 | 0.567
HCC-366 | 0.708
HCC-827 | 0.387
HOP-62 | 0.711
LC-2-ad | 0.585
LCLC-97TM1 | 0.409
LCLC-103H | 0.269
LK-2 | 0.402
LOU-NH91 | 0.741
LU99A | 0.997
LXF-289 | 0.486
NCI-H23 | 0.425
NCI-H322M | 0.872
NCI-H358 | 0.313
NCI-H441 | 0.674
NCI-H460 | 0.611
NCI-H520 | 0.53

Cell Line | relative viability
NCI-H522 | 0.65
NCI-H647 | 0.459
NCI-H650 | 0.385
NCI-H661 | 0.267
NCI-H727 | 0.673
NCI-H838 | 0.594
NCI-H1355 | 0.387
NCI-H1395 | 0.45
NCI-H1437 | 0.365
NCI-H1650 | 0.394
NCI-H1651 | 0.435
NCI-H1666 | 0.609
NCI-H1734 | 0.455
NCI-H1755 | 0.576
NCI-H1792 | 1.12
NCI-H1793 | 0.264
NCI-H1915 | 0.367
NCI-H1944 | 0.286
